Results reported in ChEMBL document CHEMBL1144591, “Synthesis and cytotoxicity of some new eriocalyxin B derivatives” (Eur J Med Chem, 2007).
≈ marks a conversion by molar mass, not a printed value.

How the values were obtained:
Format in all cases: functional, cell-based
[1] = Cytotoxicity against human OVCA2780 cells after 48 hrs by MTT colorimetric assay; settings: A2780, 48 h
K562 = test: Cytotoxicity against human K562 cells after 48 hrs by MTT colorimetric assay; settings: K562, 48 h
A549 = test: Cytotoxicity against human A549 cells after 48 hrs by MTT colorimetric assay; settings: A549, 48 h
DU-145 = test: Cytotoxicity against human DU145 cells after 48 hrs by MTT colorimetric assay; settings: DU-145, 48 h
MCF7 = test: Cytotoxicity against human MCF7 cells after 48 hrs by MTT colorimetric assay; settings: MCF7, 48 h

C[C@H]1C(=O)[C@]23C[C@H]1CC[C@H]2[C@@]12CO[C@@]3(O)[C@@H](O)[C@@H]1C(C)(C)CCC2=O
IC50 [1]: > 200 µg/mL
IC50 (K562): > 100 µg/mL
IC50 (A549): > 100 µg/mL
IC50 (DU-145): > 200 µg/mL
IC50 (MCF7): > 200 µg/mL

C=C1C(=O)[C@]23C[C@H]1CC[C@H]2[C@@]12CO[C@@]3(O)[C@@H](OC(C)=O)[C@@H]1C(C)(C)C=CC2=O
IC50 [1]: 11.9 µg/mL (≈ 30.9 µM)
IC50 (K562): 25 µg/mL (≈ 64.7 µM)
IC50 (A549): 31 µg/mL (≈ 80.2 µM)
IC50 (DU-145): 80.6 µg/mL (≈ 209 µM)
IC50 (MCF7): 20.1 µg/mL (≈ 51.9 µM)

C=C1C(=O)[C@]23C[C@H]1CC[C@H]2[C@@]12CO[C@@]3(O)[C@@H](OC(=O)CBr)[C@@H]1C(C)(C)C=CC2=O
IC50 [1]: 2.06 µg/mL (≈ 4.43 µM)
IC50 (K562): 1.5 µg/mL (≈ 3.22 µM)
IC50 (A549): 4.86 µg/mL (≈ 10.4 µM)
IC50 (DU-145): 4.52 µg/mL (≈ 9.71 µM)
IC50 (MCF7): 0.85 µg/mL (≈ 1.83 µM)

C=C1C(=O)[C@]23C[C@H]1CC[C@H]2[C@]1(COC(C)=O)C(=O)C=CC(C)(C)[C@H]1[C@H](OC(C)=O)C3=O
IC50 [1]: 9.71 µg/mL (≈ 22.7 µM)
IC50 (K562): 28.1 µg/mL (≈ 65.6 µM)
IC50 (A549): 61.8 µg/mL (≈ 144 µM)
IC50 (DU-145): 17.9 µg/mL (≈ 41.8 µM)
IC50 (MCF7): 24.6 µg/mL (≈ 57.4 µM)

C=C1C(=O)[C@]23C[C@H]1CC[C@H]2[C@]12CO[C@@H](CC1=O)C(C)(C)[C@H]2[C@H](OC(C)=O)C3=O
IC50 [1]: 11.3 µg/mL (≈ 29.2 µM)
IC50 (K562): 19.3 µg/mL (≈ 49.9 µM)
IC50 (A549): 10.1 µg/mL (≈ 26.1 µM)
IC50 (DU-145): 31.9 µg/mL (≈ 82.5 µM)
IC50 (MCF7): 36.7 µg/mL (≈ 94.9 µM)

C=C1C(=O)[C@]23C[C@H]1CC[C@H]2[C@]12CO[C@@H](CC1=O)C(C)(C)[C@H]2[C@H](OC(=O)CBr)C3=O
IC50 [1]: 14.9 µg/mL (≈ 32.1 µM)
IC50 (K562): 4.54 µg/mL (≈ 9.76 µM)
IC50 (A549): 10.9 µg/mL (≈ 23.4 µM)
IC50 (DU-145): 26.6 µg/mL (≈ 57.1 µM)
IC50 (MCF7): 67.1 µg/mL (≈ 144 µM)

C=C1C(=O)[C@]23C[C@H]1CC[C@H]2[C@]12CO[C@@H](CC1=O)C(C)(C)[C@H]2[C@H](OC(=O)CCCl)C3=O
IC50 [1]: 10.5 µg/mL (≈ 24.1 µM)
IC50 (K562): 8.88 µg/mL (≈ 20.4 µM)
IC50 (A549): 20.3 µg/mL (≈ 46.6 µM)
IC50 (DU-145): 51 µg/mL (≈ 117 µM)
IC50 (MCF7): 22.7 µg/mL (≈ 52.1 µM)

C=C(C(=O)O)[C@@H]1CC[C@@H]2[C@@H](C1)C(=O)C(O)=C1C(C)(C)[C@@H]3CC(=O)[C@]12CO3
IC50 [1]: > 200 µg/mL
IC50 (K562): > 200 µg/mL
IC50 (A549): > 200 µg/mL
IC50 (DU-145): > 200 µg/mL
IC50 (MCF7): > 200 µg/mL

C=C1C(=O)[C@]23C[C@H]1CC[C@H]2[C@]1(COC3=O)C(=O)C=CC(C)(C)[C@H]1C=O
IC50 [1]: 20.7 µg/mL (≈ 60.3 µM)
IC50 (K562): 0.27 µg/mL (≈ 0.789 µM)
IC50 (A549): 2.26 µg/mL (≈ 6.6 µM)
IC50 (DU-145): 47.4 µg/mL (≈ 138 µM)
IC50 (MCF7): 0.257 µg/mL (≈ 0.751 µM)

C=C1[C@@H]2CC[C@H]3[C@@]45CO[C@@](O)([C@@H](O)[C@@H]4C(C)(C)C=CC5=O)[C@]3(C2)[C@@H]1O
IC50 [1]: 52.8 µg/mL (≈ 152 µM)
IC50 (K562): 33.2 µg/mL (≈ 96 µM)
IC50 (A549): 15.3 µg/mL (≈ 44.1 µM)
IC50 (DU-145): > 100 µg/mL
IC50 (MCF7): 83.6 µg/mL (≈ 241 µM)

C=C1C(=O)[C@]23C[C@H]1CC[C@H]2[C@@]12CO[C@@]3(OC(C)=O)[C@@H](O)[C@@H]1C(C)(C)C=CC2=O
IC50 [1]: 13.1 µg/mL (≈ 34 µM)
IC50 (K562): 7.23 µg/mL (≈ 18.7 µM)
IC50 (A549): 38.9 µg/mL (≈ 101 µM)
IC50 (DU-145): 74.7 µg/mL (≈ 193 µM)
IC50 (MCF7): > 100 µg/mL

C=C1C(=O)[C@]23C[C@H]1CC[C@H]2[C@@]12CO[C@@]3(O)C(=O)[C@@H]1C(C)(C)C=CC2=O
IC50 [1]: 7.28 µg/mL (≈ 21.3 µM)
IC50 (K562): 4.94 µg/mL (≈ 14.4 µM)
IC50 (A549): 33.2 µg/mL (≈ 96.9 µM)
IC50 (DU-145): 12 µg/mL (≈ 35 µM)
IC50 (MCF7): 59.6 µg/mL (≈ 174 µM)

C=C1C(=O)[C@]23C[C@H]1CC[C@H]2[C@@]12CO[C@@]3(O)[C@@H](O)[C@@H]1C(C)(C)C=CC2=O
IC50 [1]: 1.8 µg/mL (≈ 5.23 µM)
IC50 (K562): 1.32 µg/mL (≈ 3.83 µM)
IC50 (A549): 2.49 µg/mL (≈ 7.23 µM)
IC50 (DU-145): 1.34 µg/mL (≈ 3.89 µM)
IC50 (MCF7): 0.15 µg/mL (≈ 0.436 µM)

C=C1[C@@H]2CC[C@H]3[C@@]45CO[C@@](O)([C@@H](O)[C@@H]4C(C)(C)C=C[C@@H]5O)[C@]3(C2)[C@@H]1O
IC50 [1]: > 200 µg/mL
IC50 (K562): > 100 µg/mL
IC50 (A549): > 100 µg/mL
IC50 (DU-145): > 100 µg/mL
IC50 (MCF7): > 100 µg/mL

C=CC(=O)O[C@H]1[C@@H]2C(C)(C)C=CC(=O)[C@]23CO[C@]1(O)[C@@]12C[C@@H](CC[C@@H]31)C(=C)C2=O
IC50 [1]: 4.33 µg/mL (≈ 10.9 µM)
IC50 (K562): 5.05 µg/mL (≈ 12.7 µM)
IC50 (A549): 33 µg/mL (≈ 82.8 µM)
IC50 (DU-145): 41.2 µg/mL (≈ 103 µM)
IC50 (MCF7): 6.56 µg/mL (≈ 16.5 µM)

C=C1C(=O)[C@]23C[C@H]1CC[C@H]2[C@]1(COC3=O)C(=O)C=CC(C)(C)[C@H]1C(=O)O
IC50 [1]: > 200 µg/mL
IC50 (K562): > 100 µg/mL
IC50 (A549): > 100 µg/mL
IC50 (DU-145): > 100 µg/mL
IC50 (MCF7): > 100 µg/mL

C=C1C(=O)[C@]23C[C@H]1CC[C@H]2[C@]12CO[C@@H](CC1=O)C(C)(C)[C@H]2[C@H](OC(=O)CCCCl)C3=O
IC50 [1]: 42.6 µg/mL (≈ 95 µM)
IC50 (K562): > 100 µg/mL
IC50 (A549): 68.1 µg/mL (≈ 152 µM)
IC50 (DU-145): > 100 µg/mL
IC50 (MCF7): > 100 µg/mL

C=C(C(=O)O)[C@@H]1CC[C@@H]2[C@@H](C1)C(=O)[C@@H](O)[C@@H]1C(C)(C)[C@@H]3CC(=O)[C@@]21CO3
IC50 [1]: > 200 µg/mL
IC50 (K562): > 100 µg/mL
IC50 (A549): > 200 µg/mL
IC50 (DU-145): > 200 µg/mL
IC50 (MCF7): > 200 µg/mL

C=C1C(=O)[C@]23C[C@H]1CC[C@H]2[C@]12CO[C@@H](CC1=O)C(C)(C)[C@H]2[C@H](O)C3=O
IC50 [1]: 16.9 µg/mL (≈ 49.2 µM)
IC50 (K562): 3.73 µg/mL (≈ 10.8 µM)
IC50 (A549): 27.2 µg/mL (≈ 79 µM)
IC50 (DU-145): 33.2 µg/mL (≈ 96.3 µM)
IC50 (MCF7): 8.87 µg/mL (≈ 25.8 µM)

C=C1[C@@H]2CC[C@H]3[C@@]45CO[C@@](O)([C@@H](O)[C@@H]4C(C)(C)CC[C@@H]5O)[C@]3(C2)[C@@H]1O
IC50 [1]: > 200 µg/mL
IC50 (K562): > 100 µg/mL
IC50 (A549): > 100 µg/mL
IC50 (DU-145): > 100 µg/mL
IC50 (MCF7): > 100 µg/mL
